In paper PMC7525662, “Preclinical dosimetry models and the prediction of clinical doses of novel positron emission tomography radiotracers” (Scientific Reports, 2020):
Marks after values point to notes of the source that are not given here.

Legend:
Design in all cases: species or system Sprague–Dawley rats
[1] = OLINDA/EXM predicted clinical doses: adult female phantom, normalised τ, iterative; settings: rat, in vivo
Protocol: (§1) PET studies were reconstructed using filtered-back projection (FBP) and Mediso’s iterative Tera-Tomo 3D reconstruction algorithm with the following settings: 4 iterations, 6 subsets, full detector model, normal regularization, spike filter on, voxel size 0.4 mm and 400‒600 keV energy window. PET data were corrected for randoms, scatter and attenuation. Time-activity curves for each source organ, whole-body and remainder of the body were plotted. […] Residence times (τ) were determined for each radiotracer in source organs, whole-body and remaining (any activity assigned to the whole-body but not assigned to a source organ). Each preclinical source organ’s τ was determined by calculating the area under its respective time-activity curve (activity normalised to the percentage maximum injected dose as a function of time) using the trapezoid method. […] From each individual animal, eight dosimetry models were constructed from all possible combinations of image reconstruction method (FBP or iterative), τ (non-normalised or normalised to human organ masses), and sex of phantom (male or female). Supplementary table 12. Predicted clinical absorbed organ doses and whole-body effective doses of PET radiotracers using normalised adult female source organ residence times from iterative reconstructions.

[2] = OLINDA/EXM predicted clinical doses: adult male phantom, normalised τ, FBP; settings: rat, in vivo
Protocol: as §1, with “female).” for “female). Supplementary table 12. Predicted clinical absorbed organ doses and whole-body effective doses of PET radiotracers using normalised adult female source organ residence times from iterative reconstructions.”

[3] = Residence times in rat source organs from whole-body PET, iterative reconstruction; settings: in vivo, iv
Protocol: as §1, with “Immediately after radiotracer administration, a 240 min emission scan using 4 beds (50% overlap) was obtained using 3-dimensional 1:5 mode and re-binned as follows: 7 × 1 min, 2 × 5 min and 4 × 10 min. Throughout the PET/CT scanning session, animal temperature and respiration rate were monitored and controlled. PET studies” for “PET studies”, “and attenuation. […] Then, PMOD’s contours interpolation tool was used to interpolate ROIs for each organ into a corresponding volume-of-interest (VOI). A static cuboidal VOI was also drawn to include the animal whole-body. Time-activity curves” for “and attenuation. Time-activity curves”, “or female).” for “or female). Supplementary table 12. Predicted clinical absorbed organ doses and whole-body effective doses of PET radiotracers using normalised adult female source organ residence times from iterative reconstructions.”

O=C[C@H]([18F])[C@@H](O)[C@H](O)[C@H](O)CO [FDG, 2-deoxy-2-[^18F]fluoro-D-glucose]
Effective Dose [1]: 1.15E-02 mSv/MBq
Estimated Absorbed Dose of Organ, Brain [1]: 1.19E-02 mGy/MBq
Estimated Absorbed Dose of Organ, Breasts [1]: 1.84E-02 mGy/MBq
Estimated Absorbed Dose of Organ, Gallbladder Wall [1]: 8.62E-03 mGy/MBq
Estimated Absorbed Dose of Organ, Heart Wall [1]: 1.28E-02 mGy/MBq
Estimated Absorbed Dose of Organ, Kidneys [1]: 9.59E-02 ‡ mGy/MBq
Estimated Absorbed Dose of Organ, LLI Wall [1]: 1.11E-02 mGy/MBq
Estimated Absorbed Dose of Organ, Liver [1]: 2.72E-02 mGy/MBq
Estimated Absorbed Dose of Organ, Lungs [1]: 1.15E-02 mGy/MBq
Estimated Absorbed Dose of Organ, Muscle [1]: 1.79E-02 mGy/MBq
Estimated Absorbed Dose of Organ, Osteogenic Cells [1]: 1.02E-02 mGy/MBq
Estimated Absorbed Dose of Organ, Ovaries [1]: 1.03E-02 mGy/MBq
Estimated Absorbed Dose of Organ, Pancreas [1]: 1.95E-02 mGy/MBq
Estimated Absorbed Dose of Organ, Red Marrow [1]: 1.23E-02 mGy/MBq
Estimated Absorbed Dose of Organ, Skin [1]: 1.51E-02 mGy/MBq
Estimated Absorbed Dose of Organ, Small Intestine [1]: 8.33E-02 § mGy/MBq
Estimated Absorbed Dose of Organ, Spleen [1]: 7.40E-03 mGy/MBq
Estimated Absorbed Dose of Organ, Stomach Wall [1]: 1.38E-02 mGy/MBq
Estimated Absorbed Dose of Organ, Thymus [1]: 1.10E-02 mGy/MBq
Estimated Absorbed Dose of Organ, Thyroid [1]: 1.16E-02 mGy/MBq
Estimated Absorbed Dose of Organ, ULI Wall [1]: 1.15E-02 mGy/MBq
Estimated Absorbed Dose of Organ, Urinary Bladder Wall [1]: 8.48E-03 mGy/MBq
Estimated Absorbed Dose of Organ, Uterus [1]: 1.93E-01 † mGy/MBq
Estimated Absorbed Dose, Total Body [1]: 2.12E-02 mGy/MBq
Effective Dose (mSv/MBq), Average ± SD [2]: 2.62E-02 mSv/MBq
Estimated Absorbed Dose of Organ, Average: Adrenals [2]: 1.23E-02 mGy/MBq
Estimated Absorbed Dose of Organ, Average: Brain [2]: 8.73E-03 mGy/MBq
Estimated Absorbed Dose of Organ, Average: Breasts [2]: 9.14E-03 mGy/MBq
Estimated Absorbed Dose of Organ, Average: Gallbladder Wall [2]: 1.25E-02 mGy/MBq
Estimated Absorbed Dose of Organ, Average: Heart Wall [2]: 3.82E-02 mGy/MBq
Estimated Absorbed Dose of Organ, Average: Kidneys [2]: 1.43E-02 § mGy/MBq
Estimated Absorbed Dose of Organ, Average: Liver [2]: 7.98E-03 mGy/MBq
Estimated Absorbed Dose of Organ, Average: Lungs [2]: 1.48E-02 mGy/MBq
Estimated Absorbed Dose of Organ, Average: Muscle [2]: 1.13E-02 mGy/MBq
Estimated Absorbed Dose of Organ, Average: Osteogenic Cells [2]: 1.67E-02 mGy/MBq
Estimated Absorbed Dose of Organ, Average: Pancreas [2]: 1.31E-02 mGy/MBq
Estimated Absorbed Dose of Organ, Average: Red Marrow [2]: 1.11E-02 mGy/MBq
Estimated Absorbed Dose of Organ, Average: Skin [2]: 8.54E-03 mGy/MBq
Estimated Absorbed Dose of Organ, Average: Small Intestine [2]: 1.55E-02 mGy/MBq
Estimated Absorbed Dose of Organ, Average: Spleen [2]: 1.20E-02 mGy/MBq
Estimated Absorbed Dose of Organ, Average: Stomach Wall [2]: 1.26E-02 mGy/MBq
Estimated Absorbed Dose of Organ, Average: Testes [2]: 1.22E-02 mGy/MBq
Estimated Absorbed Dose of Organ, Average: Thymus [2]: 1.17E-02 mGy/MBq
Estimated Absorbed Dose of Organ, Average: Thyroid [2]: 1.09E-02 ± 1.11E-03 mGy/MBq
Estimated Absorbed Dose of Organ, Average: Total Body [2]: 1.17E-02 mGy/MBq
Estimated Absorbed Dose of Organ, Average: ULI Wall [2]: 1.39E-02 mGy/MBq
Estimated Absorbed Dose of Organ, Average: Urinary Bladder Wall [2]: 8.88E-02 ‡ mGy/MBq
Residence Time (h), Average: Brain [3]: 0.0254 h
Residence Time (h), Average: Heart [3]: 0.0387 h
Residence Time (h), Average: Intestine [3]: 0.287 h
Residence Time (h), Average: Kidneys [3]: 0.0499 h
Residence Time (h), Average: Liver [3]: 0.0417 h
Residence Time (h), Average: Lungs [3]: 0.0166 h
Residence Time (h), Average: Remaining [3]: 1.35 h
Residence Time (h), Average: Urinary Bladder [3]: 1.15 h

NOTA-RGDfK [existing Al^18F-labelled NOTA-RGDfK peptide PET radiotracer; precursor NOTA-RGDfK (1)]
Effective Dose [1]: 8.33E-03 mSv/MBq
Estimated Absorbed Dose of Organ, Brain [1]: 8.66E-03 mGy/MBq
Estimated Absorbed Dose of Organ, Breasts [1]: 2.91E-03 mGy/MBq
Estimated Absorbed Dose of Organ, Gallbladder Wall [1]: 5.51E-03 mGy/MBq
Estimated Absorbed Dose of Organ, Heart Wall [1]: 1.03E-02 mGy/MBq
Estimated Absorbed Dose of Organ, Kidneys [1]: 1.53E-02 mGy/MBq
Estimated Absorbed Dose of Organ, LLI Wall [1]: 8.45E-03 mGy/MBq
Estimated Absorbed Dose of Organ, Liver [1]: 3.23E-02 § mGy/MBq
Estimated Absorbed Dose of Organ, Lungs [1]: 9.20E-03 mGy/MBq
Estimated Absorbed Dose of Organ, Muscle [1]: 8.21E-03 mGy/MBq
Estimated Absorbed Dose of Organ, Osteogenic Cells [1]: 7.60E-03 mGy/MBq
Estimated Absorbed Dose of Organ, Ovaries [1]: 7.96E-03 mGy/MBq
Estimated Absorbed Dose of Organ, Pancreas [1]: 1.68E-02 mGy/MBq
Estimated Absorbed Dose of Organ, Red Marrow [1]: 8.65E-03 mGy/MBq
Estimated Absorbed Dose of Organ, Skin [1]: 1.09E-02 mGy/MBq
Estimated Absorbed Dose of Organ, Small Intestine [1]: 6.42E-02 ‡ mGy/MBq
Estimated Absorbed Dose of Organ, Spleen [1]: 5.48E-03 mGy/MBq
Estimated Absorbed Dose of Organ, Stomach Wall [1]: 1.13E-02 mGy/MBq
Estimated Absorbed Dose of Organ, Thymus [1]: 8.11E-03 mGy/MBq
Estimated Absorbed Dose of Organ, Thyroid [1]: 6.90E-03 mGy/MBq
Estimated Absorbed Dose of Organ, ULI Wall [1]: 8.02E-03 mGy/MBq
Estimated Absorbed Dose of Organ, Urinary Bladder Wall [1]: 5.97E-03 mGy/MBq
Estimated Absorbed Dose of Organ, Uterus [1]: 2.38E-01 † mGy/MBq
Estimated Absorbed Dose, Total Body [1]: 2.06E-02 mGy/MBq
Effective Dose (mSv/MBq), Average ± SD [2]: 2.18E-02 mSv/MBq
Estimated Absorbed Dose of Organ, Average: Adrenals [2]: 1.10E-02 mGy/MBq
Estimated Absorbed Dose of Organ, Average: Brain [2]: 3.17E-03 mGy/MBq
Estimated Absorbed Dose of Organ, Average: Breasts [2]: 8.04E-03 mGy/MBq
Estimated Absorbed Dose of Organ, Average: Gallbladder Wall [2]: 1.15E-02 mGy/MBq
Estimated Absorbed Dose of Organ, Average: Heart Wall [2]: 1.15E-02 mGy/MBq
Estimated Absorbed Dose of Organ, Average: Kidneys [2]: 1.64E-02 § mGy/MBq
Estimated Absorbed Dose of Organ, Average: LLI Wall [2]: 5.79E-02 ‡ mGy/MBq
Estimated Absorbed Dose of Organ, Average: Liver [2]: 6.81E-03 mGy/MBq
Estimated Absorbed Dose of Organ, Average: Lungs [2]: 8.79E-03 mGy/MBq
Estimated Absorbed Dose of Organ, Average: Muscle [2]: 1.05E-02 mGy/MBq
Estimated Absorbed Dose of Organ, Average: Osteogenic Cells [2]: 1.53E-02 mGy/MBq
Estimated Absorbed Dose of Organ, Average: Pancreas [2]: 1.17E-02 mGy/MBq
Estimated Absorbed Dose of Organ, Average: Red Marrow [2]: 9.94E-03 mGy/MBq
Estimated Absorbed Dose of Organ, Average: Skin [2]: 7.88E-03 mGy/MBq
Estimated Absorbed Dose of Organ, Average: Small Intestine [2]: 1.40E-02 mGy/MBq
Estimated Absorbed Dose of Organ, Average: Spleen [2]: 1.09E-02 mGy/MBq
Estimated Absorbed Dose of Organ, Average: Stomach Wall [2]: 1.13E-02 mGy/MBq
Estimated Absorbed Dose of Organ, Average: Testes [2]: 1.18E-02 mGy/MBq
Estimated Absorbed Dose of Organ, Average: Thymus [2]: 9.99E-03 mGy/MBq
Estimated Absorbed Dose of Organ, Average: Thyroid [2]: 9.88E-03 mGy/MBq
Estimated Absorbed Dose of Organ, Average: Total Body [2]: 1.05E-02 mGy/MBq
Estimated Absorbed Dose of Organ, Average: ULI Wall [2]: 1.28E-02 mGy/MBq
Estimated Absorbed Dose of Organ, Average: Urinary Bladder Wall [2]: 1.16E-01 † mGy/MBq
Residence Time (h), Average: Brain [3]: 0.00225 h
Residence Time (h), Average: Heart [3]: 0.00473 h
Residence Time (h), Average: Intestine [3]: 0.212 h
Residence Time (h), Average: Kidneys [3]: 0.0652 h
Residence Time (h), Average: Liver [3]: 0.0391 h
Residence Time (h), Average: Lungs [3]: 0.00647 h
Residence Time (h), Average: Remaining [3]: 0.996 h
Residence Time (h), Average: Urinary Bladder [3]: 1.44 h
